Measured values as given in US20230085307A1, “PYRIDAZINONE COMPOUND AND HERBICIDE” (NISSAN CHEMICAL CORPORATION, priority 2019, published 2023).

tested on: lambsquarters; test: Test Example 5: herbicidal effect by foliage application, plastic box (Table 20, symbol O); assay type: in vivo, lambsquarters (Chenopodium album); conditions: foliage application, 320 g/ha, three weeks after application
Outline: (§1)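 Sow seeds spot-wise in sterilized diluvial soil; cover with ~1.5 cm soil. Grow 14 days in greenhouse, 25° C. to 30° C. Spray foliage with emulsion diluted to predetermined amount. Rate effect after 3 weeks.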

| SMILES | O: lambsquarters, herbicidal effect grade |
| --- | --- |
| COc1ccccc1-c1sc2cc(OCC(F)F)ccc2c1-c1c(O)c(C)nn(C)c1=O [3-114] | 5 (Herbicidal rate of 90% or more (almost completely withered)) |
| CCOc1ccccc1-c1sc2cc(OCCOC)ccc2c1-c1c(O)c(C)nn(C)c1=O [3-123] | 5 (Herbicidal rate of 90% or more (almost completely withered)) |

tested on: barnyard grass; test: Test Example 4: herbicidal effect by soil treatment (Table 19, symbol H); assay type: in vivo, barnyard grass (Echinochloa crus-galli); conditions: amount of applied herbicide 320 g/ha
Outline: (§2)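 Applied as a water-diluted emulsion, the compound was sprayed onto soil covering newly sown seeds. Evaluation came three weeks after application, in a greenhouse held at 25° C. to 30° C.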

| SMILES | H: barnyard grass, herbicidal effect grade |
| --- | --- |
| COc1ccccc1-c1sc2cc(OCC(F)F)ccc2c1-c1c(O)c(C)nn(C)c1=O [3-114] | 5 (Herbicidal rate of 90% or more (almost completely withered)) |
| CCOc1ccccc1-c1sc2cc(OCCOC)ccc2c1-c1c(O)c(C)nn(C)c1=O [3-123] | 5 (Herbicidal rate of 90% or more (almost completely withered)) |

tested on: wild oat; test: Test Example 5: herbicidal effect by foliage application, plastic box (Table 20, symbol I); assay type: in vivo, wild oat (Avena fatua); conditions: foliage application, 320 g/ha, three weeks after application
Outline: as §1

| SMILES | I: wild oat, herbicidal effect grade |
| --- | --- |
| COc1ccccc1-c1sc2cc(OCC(F)F)ccc2c1-c1c(O)c(C)nn(C)c1=O [3-114] | 5 (Herbicidal rate of 90% or more (almost completely withered)) |
| CCOc1ccccc1-c1sc2cc(OCCOC)ccc2c1-c1c(O)c(C)nn(C)c1=O [3-123] | 5 (Herbicidal rate of 90% or more (almost completely withered)) |

tested on: lambsquarters; test: Test Example 4: herbicidal effect by soil treatment (Table 19, symbol O); assay type: in vivo, lambsquarters (Chenopodium album); conditions: amount of applied herbicide 320 g/ha
Outline: as §2

| SMILES | O: lambsquarters, herbicidal effect grade |
| --- | --- |
| COc1ccccc1-c1sc2cc(OCC(F)F)ccc2c1-c1c(O)c(C)nn(C)c1=O [3-114] | 5 (Herbicidal rate of 90% or more (almost completely withered)) |
| CCOc1ccccc1-c1sc2cc(OCCOC)ccc2c1-c1c(O)c(C)nn(C)c1=O [3-123] | 5 (Herbicidal rate of 90% or more (almost completely withered)) |

tested on: blackgrass; test: Test Example 4: herbicidal effect by soil treatment (Table 19, symbol J); assay type: in vivo, blackgrass (Alopecurus myosuroides); conditions: amount of applied herbicide 320 g/ha
Outline: as §2

| SMILES | J: blackgrass, herbicidal effect grade |
| --- | --- |
| COc1ccccc1-c1sc2cc(OCC(F)F)ccc2c1-c1c(O)c(C)nn(C)c1=O [3-114] | 5 (Herbicidal rate of 90% or more (almost completely withered)) |
| CCOc1ccccc1-c1sc2cc(OCCOC)ccc2c1-c1c(O)c(C)nn(C)c1=O [3-123] | 4 (Herbicidal rate of 70% or more and less than 90%) |

tested on: barnyard grass; test: Test Example 5: herbicidal effect by foliage application, plastic box (Table 20, symbol H); assay type: in vivo, barnyard grass (Echinochloa crus-galli); conditions: foliage application, 320 g/ha, three weeks after application
Outline: as §1

| SMILES | H: barnyard grass, herbicidal effect grade |
| --- | --- |
| COc1ccccc1-c1sc2cc(OCC(F)F)ccc2c1-c1c(O)c(C)nn(C)c1=O [3-114] | 5 (Herbicidal rate of 90% or more (almost completely withered)) |
| CCOc1ccccc1-c1sc2cc(OCCOC)ccc2c1-c1c(O)c(C)nn(C)c1=O [3-123] | 5 (Herbicidal rate of 90% or more (almost completely withered)) |

tested on: green foxtail; test: Test Example 4: herbicidal effect by soil treatment (Table 19, symbol G); assay type: in vivo, green foxtail (Setaria viridis); conditions: amount of applied herbicide 320 g/ha
Outline: as §2

| SMILES | G: green foxtail, herbicidal effect grade |
| --- | --- |
| COc1ccccc1-c1sc2cc(OCC(F)F)ccc2c1-c1c(O)c(C)nn(C)c1=O [3-114] | 5 (Herbicidal rate of 90% or more (almost completely withered)) |
| CCOc1ccccc1-c1sc2cc(OCCOC)ccc2c1-c1c(O)c(C)nn(C)c1=O [3-123] | 5 (Herbicidal rate of 90% or more (almost completely withered)) |

tested on: rice flat sedge; test: Test Example 3: herbicidal effect by foliage application, Wagner pot (Table 18, symbol E); assay type: in vivo, rice flat sedge (Cyperus iria); conditions: 320 g/ha
Outline: (§3)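 Plants were sown in alluvial soil held under 0.1–0.5 cm standing water and grown 14 days in a greenhouse at 25–30 °C. An emulsifiable formulation, water-diluted to the set dose, was then sprayed onto the foliage, and effects were scored three weeks later using previously defined criteria.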

| SMILES | herbicidal effect on rice flat sedge (E) |
| --- | --- |
| COc1ccccc1-c1sc2cc(OCC(F)F)ccc2c1-c1c(O)c(C)nn(C)c1=O [3-114] | 5 (Herbicidal rate of 90% or more (almost completely withered)) |
| CCOc1ccccc1-c1sc2cc(OCCOC)ccc2c1-c1c(O)c(C)nn(C)c1=O [3-123] | 5 (Herbicidal rate of 90% or more (almost completely withered)) |

tested on: chickweed; test: Test Example 5: herbicidal effect by foliage application, plastic box (Table 20, symbol P); assay type: in vivo, common chickweed (Stellaria media); conditions: foliage application, 320 g/ha, three weeks after application
Outline: as §1

| SMILES | P: chickweed, herbicidal effect grade |
| --- | --- |
| COc1ccccc1-c1sc2cc(OCC(F)F)ccc2c1-c1c(O)c(C)nn(C)c1=O [3-114] | 5 (Herbicidal rate of 90% or more (almost completely withered)) |
| CCOc1ccccc1-c1sc2cc(OCCOC)ccc2c1-c1c(O)c(C)nn(C)c1=O [3-123] | 5 (Herbicidal rate of 90% or more (almost completely withered)) |

tested on: Chinese sprangletop; test: Test Example 3: herbicidal effect by foliage application, Wagner pot (Table 18, symbol D); assay type: in vivo, chinese sprangletop (Leptochloa chinensis); conditions: 320 g/ha
Outline: as §3

| SMILES | herbicidal effect on Chinese sprangletop (D) |
| --- | --- |
| COc1ccccc1-c1sc2cc(OCC(F)F)ccc2c1-c1c(O)c(C)nn(C)c1=O [3-114] | 4 (Herbicidal rate of 70% or more and less than 90%) |
| CCOc1ccccc1-c1sc2cc(OCCOC)ccc2c1-c1c(O)c(C)nn(C)c1=O [3-123] | 5 (Herbicidal rate of 90% or more (almost completely withered)) |

tested on: velvetleaf; test: Test Example 5: herbicidal effect by foliage application, plastic box (Table 20, symbol M); assay type: in vivo, velvetleaf (Abutilon theophrasti); conditions: foliage application, 320 g/ha, three weeks after application
Outline: as §1

| SMILES | M: velvetleaf, herbicidal effect grade |
| --- | --- |
| COc1ccccc1-c1sc2cc(OCC(F)F)ccc2c1-c1c(O)c(C)nn(C)c1=O [3-114] | 5 (Herbicidal rate of 90% or more (almost completely withered)) |
| CCOc1ccccc1-c1sc2cc(OCCOC)ccc2c1-c1c(O)c(C)nn(C)c1=O [3-123] | 5 (Herbicidal rate of 90% or more (almost completely withered)) |

tested on: blackgrass; test: Test Example 5: herbicidal effect by foliage application, plastic box (Table 20, symbol J); assay type: in vivo, blackgrass (Alopecurus myosuroides); conditions: foliage application, 320 g/ha, three weeks after application
Outline: as §1

| SMILES | J: blackgrass, herbicidal effect grade |
| --- | --- |
| COc1ccccc1-c1sc2cc(OCC(F)F)ccc2c1-c1c(O)c(C)nn(C)c1=O [3-114] | 5 (Herbicidal rate of 90% or more (almost completely withered)) |
| CCOc1ccccc1-c1sc2cc(OCCOC)ccc2c1-c1c(O)c(C)nn(C)c1=O [3-123] | 5 (Herbicidal rate of 90% or more (almost completely withered)) |

tested on: Japanese bulrush; test: Test Example 2: herbicidal activity, application during weed generation under submerged conditions (Table 17, symbol B); assay type: in vivo, Japanese bulrush (Schoenoplectus juncoides); conditions: AAH 320 g/ha; application during weed generation, submerged conditions
Outline: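 In this pot test, flooded alluvial soil (water depth 4 cm) holds all three species sown as a mixture. Once seedlings have one to two leaves, the compound's emulsion, thinned with water to the intended dose, is poured on the water; grading follows after three weeks on the earlier criteria.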

| SMILES | herbicidal effect rating, B: Japanese bulrush |
| --- | --- |
| COc1ccccc1-c1sc2cc(OCC(F)F)ccc2c1-c1c(O)c(C)nn(C)c1=O [3-114] | 4 (Herbicidal rate of 70% or more and less than 90%) |
| CCOc1ccccc1-c1sc2cc(OCCOC)ccc2c1-c1c(O)c(C)nn(C)c1=O [3-123] | 3 (Herbicidal rate of 40% or more and less than 70%) |

tested on: windgrass; test: Test Example 5: herbicidal effect by foliage application, plastic box (Table 20, symbol L); assay type: in vivo, windgrass (Apera spica-venti); conditions: foliage application, 320 g/ha, three weeks after application
Outline: as §1

| SMILES | L: windgrass, herbicidal effect grade |
| --- | --- |
| COc1ccccc1-c1sc2cc(OCC(F)F)ccc2c1-c1c(O)c(C)nn(C)c1=O [3-114] | 5 (Herbicidal rate of 90% or more (almost completely withered)) |
| CCOc1ccccc1-c1sc2cc(OCCOC)ccc2c1-c1c(O)c(C)nn(C)c1=O [3-123] | 5 (Herbicidal rate of 90% or more (almost completely withered)) |

tested on: Italian ryegrass; test: Test Example 5: herbicidal effect by foliage application, plastic box (Table 20, symbol K); assay type: in vivo, Italian ryegrass (Lolium multiflorum); conditions: foliage application, 320 g/ha, three weeks after application
Outline: as §1

| SMILES | K: Italian ryegrass, herbicidal effect grade |
| --- | --- |
| COc1ccccc1-c1sc2cc(OCC(F)F)ccc2c1-c1c(O)c(C)nn(C)c1=O [3-114] | 5 (Herbicidal rate of 90% or more (almost completely withered)) |
| CCOc1ccccc1-c1sc2cc(OCCOC)ccc2c1-c1c(O)c(C)nn(C)c1=O [3-123] | 5 (Herbicidal rate of 90% or more (almost completely withered)) |

tested on: Italian ryegrass; test: Test Example 4: herbicidal effect by soil treatment (Table 19, symbol K); assay type: in vivo, Italian ryegrass (Lolium multiflorum); conditions: amount of applied herbicide 320 g/ha
Outline: as §2

| SMILES | K: Italian ryegrass, herbicidal effect grade |
| --- | --- |
| COc1ccccc1-c1sc2cc(OCC(F)F)ccc2c1-c1c(O)c(C)nn(C)c1=O [3-114] | 5 (Herbicidal rate of 90% or more (almost completely withered)) |
| CCOc1ccccc1-c1sc2cc(OCCOC)ccc2c1-c1c(O)c(C)nn(C)c1=O [3-123] | 5 (Herbicidal rate of 90% or more (almost completely withered)) |

tested on: persian speedwell; test: Test Example 5: herbicidal effect by foliage application, plastic box (Table 20, symbol R); assay type: in vivo, Persian speedwell (Veronica persica); conditions: foliage application, 320 g/ha, three weeks after application
Outline: as §1

| SMILES | R: persian speedwell, herbicidal effect grade |
| --- | --- |
| COc1ccccc1-c1sc2cc(OCC(F)F)ccc2c1-c1c(O)c(C)nn(C)c1=O [3-114] | 5 (Herbicidal rate of 90% or more (almost completely withered)) |
| CCOc1ccccc1-c1sc2cc(OCCOC)ccc2c1-c1c(O)c(C)nn(C)c1=O [3-123] | 5 (Herbicidal rate of 90% or more (almost completely withered)) |
